These results are taken from patent US20240091359A1, “NOVEL ESR1 DERIVED PEPTIDES AND USES THEREOF FOR NEOANTIGEN THERAPY” (H. LEE MOFFITT CANCER CENTER AND RESEARCH INSTITUTE, INC., priority 2021, published 2024).

The test concerns CD4+ Th1 cells. In words: ER peptide library screening: IFN-γ ELISA of supernatants from iDC-CD4+ Th1 co-culture after priming with peptide-pulsed DC1. It counts as cell-based, human. The conditions noted are these: for immunogenicity (IFN-γ production) / donors with significant increase in IFN-γ production: four healthy normal donor samples; for immunogenicity (IFN-γ production): mutated peptides and native ER peptides side by side (FIG. 9-13, 20); for native ER peptide screening result (immunogenic epitope / candidate sequence): cumulative responses from donors tested, native ER library of 117 peptides (FIG. 7); for increase in IFN-γ production: native ER individual peptide screening, second sample (FIG. 6C, 6D). An excerpt:
176. We then take this peptide library and proceed with the screening process. Briefly, human autologous monocyte fractions from healthy donors and breast cancer patients are pulsed with class II peptides and are rapidly matured to a type-1 polarized dendritic cell (DC1) through the sequential addition of rhGM-CSF, rhIL-4, rhIFN-γ and LPS. Mature-peptide pulsed DC1's are then put in co-culture with autologous naïve T-cells, where these T-cells are presented with peptides via MHC-II molecules and are polarized to a type-1 effector CD4+ cell through DC1 secretion of IL-12. Additionally, IL-2 is added to the coculture to induce the rapid expansion of CD4+ Th1 cells, after 8-10 days of coculture, the now primed CD4+ Th1 cells are re-stimulated with immature dendritic cells presenting the matching class II peptide or an irrelevant class II negative control. Supernatants from the iDC-CD4+ Th1 co-culture are then screened through IFN-γ ELISA to measure Th1-response. An antigen specific response is considered to be significant as approximately a 2-fold increase in IFN-γ production (pg/mL) compared to the control. The final in vitro screening step is then to do a reverse sensitization. Where the primed CD4 T cells are re-stimulated with immature dendritic cells pulsed with the full tumor antigen in question, or the full protein. This step is important to determine if the identified immunogenic epitope can be recognized by T-cells primed to only a small amino acid sequence apart of the much larger protein.
178. The screening process (FIG. 3) of 10-5-1 is repeated on different samples as well to confirm commonalities in increased responses and reproducibility, ensuring that a response was not donor specific to keep track of common increased responses across donors and ultimately identify those reproducibly immunogenic peptides. The screening procedure follows the same experimental steps as mentioned before, and flows through a successive screening strategy, examining pools of 10 peptides, followed by pools of 5-peptides and eventually as individual peptides. This process allows for the rapid identification of the areas in the full protein sequence that may contain immunogenic peptides, rather than screening all peptides individually.
185. From the 11 noted point mutations, we cross matched their locations within the class II sequences of the ER peptide library. From this, each point mutation was represented in three peptide sequences due to the 10-amino acid overlap between adjacent sequences within the library. This overlap helps to account for binding affinity within the MHC II open binding groove (Table 3) 186. From the 11 mutations, a peptide library of 33 peptides (three sequences per mutation) was created (Table 3). As a comparison, we also screened the corresponding native or un-mutated ER sequences side-by-side to see if the mutation induced an increase in Th1 response compared to the native sequence.
For orientation: ELISA stands for enzyme-linked immunosorbent assay.

With “LYDLLLEMLDAHRLH [P108, native ER library peptide]”, the “immunogenicity (IFN-γ production)” value is given as “not immunogenic”.
Same read-out and setting: the value for “GFVDLTLHDQVHLLE [P74, native ER library peptide]” was “not immunogenic”.
As to “IILLNSGVYTFLSST [P91, native ER library peptide]”, the “donors with significant increase in IFN-γ production” value is “two of four donors”.
For the sequence “AKAGLTLQQQHQRLA [P99, native ER library peptide]”, the “native ER peptide screening result (immunogenic epitope / candidate sequence)” value was “immunogenic”. For the same sequence, the “native ER peptide screening result (immunogenic epitope / candidate sequence)” value (listed as 99) was “candidate sequences”.
“HMSNKGMEHLYSMKC [P104, native ER library peptide]”: the “native ER peptide screening result (immunogenic epitope / candidate sequence)” value is “immunogenic”. For the same sequence, the “native ER peptide screening result (immunogenic epitope / candidate sequence)” value (listed as 104) is “candidate sequences”.
With “YSMKCKNVVPLYDLL [P106, native ER library peptide]”, the “immunogenicity (IFN-γ production)” value was “not immunogenic”.
Consider “TLHDQVHLLECAWLE [P75, native ER library peptide]”, for which the “immunogenicity (IFN-γ production)” value is reported as “not immunogenic”.
As for “QQVPYYLENEPSGYT [P26, native ER library peptide]”, the “native ER peptide screening result (immunogenic epitope / candidate sequence)” value is “immunogenic”. Under “listed as 26”, the “native ER peptide screening result (immunogenic epitope / candidate sequence)” value is recorded as “candidate sequences”.
As for “KNVVPLYDLLLEMLD [P107, native ER library peptide]”, the “immunogenicity (IFN-γ production)” value was “not immunogenic”.
Consider “LSHIRHMSNKGMEHL [P103, native ER library peptide]”, for which the “native ER peptide screening result (immunogenic epitope / candidate sequence)” value was “immunogenic” and the “increase in IFN-γ production” value is “almost identical response to 104”. Besides, for the setting “listed as 103”, the “native ER peptide screening result (immunogenic epitope / candidate sequence)” value is given as “candidate sequences”.
Take “FLSSTLKSLEEKDHI [P93, native ER library peptide]”: the “donors with significant increase in IFN-γ production” value is recorded as “two of four donors”.
Turning to “YLENEPSGYTVREAG [P27, native ER library peptide]”, the “native ER peptide screening result (immunogenic epitope / candidate sequence)” value is reported as “immunogenic” and the “increase in IFN-γ production” value was “approximately 1.4 fold”. Further, under “listed as 27”, the “native ER peptide screening result (immunogenic epitope / candidate sequence)” value was “candidate sequences”.
